≈ marks a conversion by molar mass, not a printed value. Calls of active or inactive are those of the source. The rule behind the calls is not given here.
Columns and labels:
Staphylococcus aureus = test: Antibacterial activity against Staphylococcus aureus ATCC 25923 assessed as inhibition of bacterial growth incubated for 24 hrs by microtiter plate reader analysis; type: functional
[1] = test system: Staphylococcus epidermidis; test: Antibacterial activity against Staphylococcus epidermidis ATCC 14990 assessed as inhibition of bacterial growth incubated for 24 hrs by microtiter plate reader analysis; type: functional
Pseudomonas aeruginosa = test: Antibacterial activity against Pseudomonas aeruginosa ATCC 47085 assessed as inhibition of bacterial growth incubated for 24 hrs by microtiter plate reader analysis; type: functional
A549 = test: Antiproliferative activity against human A549 cells assessed as inhibition of cell growth incubated for 72 hrs by CCK-8 assay; type: functional, cell-based; conditions: A549, 72 h
NCI-H1299 = test: Antiproliferative activity against human NCI-H1299 cells assessed as inhibition of cell growth incubated for 72 hrs by CCK-8 assay; type: functional, cell-based; conditions: NCI-H1299, 72 h
SW480 [2] = test: Antiproliferative activity against human SW480 cells assessed as inhibition of cell growth incubated for 72 hrs by CCK-8 assay; type: functional, cell-based; conditions: SW480, 72 h
SW1990 = test: Antiproliferative activity against human SW1990 cells assessed as inhibition of cell growth incubated for 72 hrs by CCK-8 assay; type: functional, cell-based; conditions: SW1990, 72 h
SW480 [3] = test: Inhibition of colony formation in human SW480 cells assessed as reduction in number of clonogenic cells at 0 to 2.5 uM incubated for 24 hrs followed by replacement with fresh medium and measured after 24 hrs by crystal violet staining based analysis; type: functional, cell-based; conditions: dose 0-2.5 µM
SW480 [4] = test: Induction of apoptosis in human SW480 cells assessed as increase in annexin V/PI positive cells incubated for 24 hrs by annexin V-FITC/PI staining based flow cytometry analysis; type: functional, cell-based; conditions: dose 0-2.5 µM

| MIC (Staphylococcus aureus) | MIC [1] | MIC (Pseudomonas aeruginosa) | IC50 (A549) | IC50 (NCI-H1299) | IC50 (SW480 [2]) | IC50 (SW1990) | SMILES | inhibition (SW480 [3]) | Activity (SW480 [4]) |
| --- | --- | --- | --- | --- | --- | --- | --- | --- | --- |
| 45 µg/mL (≈ 25.3 µM) | > 180 µg/mL | > 180 µg/mL | 1.3 µM | 1.3 µM | 0.46 µM | 0.46 µM | CC[C@@](C)(NC(=O)[C@H](C)NC(=O)[C@H](C)NC(=O)C(C)(C)NC(C)=O)C(=O)N[C@](C)(CC)C(=O)N[C@@H](CCC(N)=O)C(=O)NC(C)(C)C(=O)N[C@H](C(=O)NC(C)(C)C(=O)NCC(=O)N[C@@H](CC(C)C)C(=O)NC(C)(C)C(=O)N1CCC[C@H]1C(=O)N[C@@H](CC(C)C)C(=O)NC(C)(C)C(=O)NC(C)(C)C(=O)N[C@@H](CCC(N)=O)C(=O)N[C@H](CO)Cc1ccccc1)C(C)C | Active | Active |
| 23 µg/mL (≈ 12.9 µM) | 90 µg/mL (≈ 50.6 µM) | > 180 µg/mL | 2.8 µM | 4 µM | 1.2 µM | 1.2 µM | CC[C@@](C)(NC(=O)[C@H](CCC(N)=O)NC(=O)[C@@](C)(CC)NC(=O)C(C)(C)NC(=O)[C@H](C)NC(=O)[C@H](C)NC(=O)C(C)(C)NC(C)=O)C(=O)N[C@H](C(=O)NC(C)(C)C(=O)NCC(=O)N[C@@H](CC(C)C)C(=O)NC(C)(C)C(=O)N1CCC[C@H]1C(=O)N[C@@H](CC(C)C)C(=O)NC(C)(C)C(=O)NC(C)(C)C(=O)N[C@@H](CCC(N)=O)C(=O)N[C@H](CO)Cc1ccccc1)C(C)C | – | – |
| 45 µg/mL (≈ 25.5 µM) | > 180 µg/mL | > 180 µg/mL | 2.7 µM | 4.7 µM | 0.9 µM | 0.9 µM | CC[C@@](C)(NC(=O)C(C)(C)NC(=O)[C@H](C)NC(=O)[C@H](C)NC(=O)C(C)(C)NC(C)=O)C(=O)N[C@@H](CCC(N)=O)C(=O)NC(C)(C)C(=O)N[C@H](C(=O)NC(C)(C)C(=O)NCC(=O)N[C@@H](CC(C)C)C(=O)NC(C)(C)C(=O)N1CCC[C@H]1C(=O)N[C@@H](CC(C)C)C(=O)NC(C)(C)C(=O)NC(C)(C)C(=O)N[C@@H](CCC(N)=O)C(=O)N[C@H](CO)Cc1ccccc1)C(C)C | – | – |

Further lines, the compound ahead of its results:

| SMILES | MIC (Staphylococcus aureus) | MIC [1] | MIC (Pseudomonas aeruginosa) | IC50 (A549) | IC50 (NCI-H1299) | IC50 (SW480 [2]) | IC50 (SW1990) | inhibition (SW480 [3]) | Activity (SW480 [4]) |
| --- | --- | --- | --- | --- | --- | --- | --- | --- | --- |
| O=C(N[C@H](CO)[C@H](O)c1ccc([N+](=O)[O-])cc1)C(Cl)Cl [CHLORAMPHENICOL] | 3.1 µg/mL (≈ 9.59 µM) | 1.6 µg/mL (≈ 4.95 µM) | > 180 µg/mL | – | – | – | – | – | – |
| CC[C@@](C)(NC(=O)[C@H](C)NC(=O)[C@H](C)NC(=O)C(C)(C)NC(C)=O)C(=O)N[C@](C)(CC)C(=O)N[C@@H](CCC(N)=O)C(=O)N[C@](C)(CC)C(=O)N[C@H](C(=O)NC(C)(C)C(=O)NCC(=O)N[C@@H](CC(C)C)C(=O)NC(C)(C)C(=O)N1CCC[C@H]1C(=O)N[C@@H](CC(C)C)C(=O)NC(C)(C)C(=O)NC(C)(C)C(=O)N[C@@H](CCC(N)=O)C(=O)N[C@H](CO)Cc1ccccc1)C(C)C | 23 µg/mL (≈ 12.8 µM) | > 180 µg/mL | > 180 µg/mL | 2.7 µM | 3 µM | 1.5 µM | 1.5 µM | – | – |
| CC[C@@](C)(NC(=O)C(C)(C)NC(=O)[C@H](C)NC(=O)[C@H](C)NC(=O)C(C)(C)NC(C)=O)C(=O)N[C@@H](CCC(N)=O)C(=O)NC(C)(C)C(=O)N[C@H](C(=O)NC(C)(C)C(=O)NCC(=O)N[C@@H](CC(C)C)C(=O)NC(C)(C)C(=O)N1CCC[C@H]1C(=O)N[C@@H](CC(C)C)C(=O)NC(C)(C)C(=O)NC(C)(C)C(=O)N[C@@H](CCC(N)=O)C(=O)N[C@H](CO)Cc1c[nH]c2ccccc12)C(C)C | 23 µg/mL (≈ 12.7 µM) | 90 µg/mL (≈ 49.9 µM) | > 180 µg/mL | 2.5 µM | 3.4 µM | 0.88 µM | 1.3 µM | – | – |
| CC[C@@H](C)[C@H](NC(=O)[C@@](C)(CC)NC(=O)[C@H](CCC(N)=O)NC(=O)[C@@](C)(CC)NC(=O)[C@@](C)(CC)NC(=O)[C@H](C)NC(=O)[C@H](CO)NC(=O)C(C)(C)NC(C)=O)C(=O)NC(C)(C)C(=O)NCC(=O)N[C@@H](CC(C)C)C(=O)NC(C)(C)C(=O)N1CCC[C@H]1C(=O)N[C@@H](CC(C)C)C(=O)NC(C)(C)C(=O)NC(C)(C)C(=O)N[C@@H](CCC(N)=O)C(=O)N[C@H](CO)Cc1ccccc1 | 45 µg/mL (≈ 24.7 µM) | > 180 µg/mL | > 180 µg/mL | 2.8 µM | 2.9 µM | 0.96 µM | 0.96 µM | – | – |
| CC[C@@](C)(NC(=O)[C@H](C)NC(=O)[C@H](CO)NC(=O)C(C)(C)NC(C)=O)C(=O)N[C@](C)(CC)C(=O)N[C@@H](CCC(N)=O)C(=O)N[C@](C)(CC)C(=O)N[C@H](C(=O)NC(C)(C)C(=O)NCC(=O)N[C@@H](CC(C)C)C(=O)NC(C)(C)C(=O)N1CCC[C@H]1C(=O)N[C@@H](CC(C)C)C(=O)NC(C)(C)C(=O)NC(C)(C)C(=O)N[C@@H](CCC(N)=O)C(=O)N[C@H](CO)Cc1ccccc1)C(C)C | 23 µg/mL (≈ 12.7 µM) | 90 µg/mL (≈ 49.7 µM) | > 180 µg/mL | 2.6 µM | 3.2 µM | 1.1 µM | 1.1 µM | – | – |
